Data from US20100152303A1, “AGENTS AND METHOD FOR […] […]” (priority 2000, published 2010).

Experiments:
[1] = cited from earlier work
ERP57 = assay: Effect of methoxychlor on ERP57 concentration in rat livers (immunoelectrophoresis of liver microsomes); format: in vivo; details: male CD rats, gavage in corn oil, 14 days, dosages 10, 50, and 100 mg/kg/day
From the text: The purpose of this experiment was to determine the effect of administering varying levels of methoxychlor for 14 days on the levels of the microsomal protein ERP57 in mammalian tissues.
Methoxychlor, potassium chloride, and Tris were purchased from Sigma Chemicals (St. Louis, Mo.). The BCA (Bicinchoninic Acid) Assay kits were purchased from Pierce Chemical Company (Rockford, Ill.). Agarose was purchased from Boehringer Mannheim (Indianapolis, Ind.). Polyclonal antibodies to the ERP57 were developed in laying hens as previously described (Srivastava et al. 1991, J. Biol. Chem. 266: 20337-20344; Chen et al. 1996, Biochemistry 25: 8299-8306).
The animals used in these studies were 150-200 g fed, male, CD rats from Harlan Laboratories. […] The microsomal suspensions were aliquoted and stored at −80° C. until analyzed.
The concentrations of total microsomal protein were then determined via the BCA assay. […]
The concentration of ERP57 in the samples was determined with immunoelectrophoresis. […]
The indicator dye was a combination of nitroblue tetrazolium and 5-bromo-4-chloro-3-indoyl phosphate from Bio Rad (Richmond, Calif.). […] The densities of the stained bands were determined on a flat bed scanner from UMAX (Taiwan, China). The scans were analyzed using NIH Image (version 1.54) on a PowerPC (Apple Computer). The blank for each band was determined from the adjacent, unreacted area in the lane.

In the case of `COc1ccc(C(c2ccc(OC)cc2)C(Cl)(Cl)Cl)cc1` [methoxychlor, 1,1,1-trichloro-2,2-bis-(4-methoxyphenyl)ethane], the “rat oral LD50” value [1] is given as > 6000 mg/kg and the “relative concentration of ERP57 in the rat liver, normalized by total microsomal protein” value (ERP57) is given as “significant increase”.
